This passage reports GI50 and IC50 results from publication PMC9721423, “Novel benzo chromene derivatives: design, synthesis, molecular docking, cell cycle arrest, and apoptosis induction in human acute myeloid leukemia HL-60 cells” (Journal of Enzyme Inhibition and Medicinal Chemistry, 2022).

Structures are written as SMILES. Like-named read-outs stand apart in the source and are kept apart here.

One experiment relates to SK-MEL-5. As to the kind of experiment: cells. On the set-up: species or system NCI-60 human tumour cell lines; NCI-60 five-dose growth inhibition screen, sulforhodamine B protein stain. The conditions noted are these: Homo sapiens, SK-MEL-5, 48 h. The method in brief: (§1)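 NCI60 protocol: compounds (DMSO:glycerol stocks) tested at a single concentration of 10^−5 M for 48 h, growth read by sulforhodamine B protein staining as percent growth. For selected compounds, dose–response curves gave GI50, TGI and LC50; selectivity taken as full-panel MG-MID divided by subpanel MG-MID.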

Another experiment deals with BT-549. As to the kind of experiment: cells. The arrangement: species or system NCI-60 human tumour cell lines; NCI-60 five-dose growth inhibition screen, sulforhodamine B protein stain. The conditions noted are these: Homo sapiens, BT-549, 48 h. Put shortly: as §1
The next experiment has as its system LOX IMVI. As to the kind of experiment: cells. On the set-up: species or system NCI-60 human tumour cell lines; NCI-60 five-dose growth inhibition screen, sulforhodamine B protein stain. The conditions noted are these: Homo sapiens, LOX IMVI, 48 h. Put shortly:
as §1

In another experiment the test system is A498. As to the kind of experiment: cells. On the set-up: species or system NCI-60 human tumour cell lines; NCI-60 five-dose growth inhibition screen, sulforhodamine B protein stain. The conditions noted are these: Homo sapiens, A498, 48 h. Put shortly:
as §1

The next experiment concerns the target T1, CDK-2 (Homo sapiens, UniProt P24941).
T1 construct: gene CDK2; with cyclin A2
As to the kind of experiment: Kinase-Glo MAX luminescence kinase assay, CDK-2/cyclin A2 kit. In kind it is biochemical. The conditions noted are these: read-out: CDK-2/ cyclin A2 IC50 (μM) ± SD.

The next experiment deals with TK-10. As to the kind of experiment: cells. The arrangement: species or system NCI-60 human tumour cell lines; NCI-60 five-dose growth inhibition screen, sulforhodamine B protein stain. The conditions noted are these: Homo sapiens, TK-10, 48 h; read-out: GI50 5a. The method in brief: as §1
A further experiment has as its system OVCAR-4. As to the kind of experiment: cells. On the set-up: species or system NCI-60 human tumour cell lines; NCI-60 five-dose growth inhibition screen, sulforhodamine B protein stain. Particulars: Homo sapiens, OVCAR-4, 48 h; read-out: GI50 5a. The method in brief: as §1
A further experiment has as its system UACC-257. As to the kind of experiment: cells. On the set-up: species or system NCI-60 human tumour cell lines; NCI-60 five-dose growth inhibition screen, sulforhodamine B protein stain. The conditions noted are these: Homo sapiens, UACC-257, 48 h; read-out: GI50 5a. Put shortly: as §1
The subject of another experiment is UO-31. As to the kind of experiment: cells. On the set-up: species or system NCI-60 human tumour cell lines; NCI-60 five-dose growth inhibition screen, sulforhodamine B protein stain. The conditions noted are these: Homo sapiens, UO-31, 48 h; read-out: GI50 5a. Put shortly:
as §1

Usually GI50 stands for the concentration at which growth is held to half of that of the control. On to `CC(=O)NC1=C(C#N)C(c2ccccc2)c2ccc3ccccc3c2O1` (centres unmarked) [6a, N-(3-Cyano-4-phenyl-4H-benzo[h]chromen-2-yl)acetamide], for which the concentration for 50% growth inhibition (GI50) with SK-MEL-5 (read-out: GI50 6a) is 360 nM; in the experiment with BT-549 (read-out: GI50 6a), 990 nM; in the experiment with LOX IMVI (read-out: GI50 6a), 600 nM; with A498 (read-out: GI50 6a), 200 nM. Besides, the IC50 at CDK-2 was found to be 0.301 µM.

With `N=C(NO)C1=C(N)Oc2c(ccc3ccccc23)C1c1ccccc1` (centres unmarked) [5a, 2-Amino-4-phenyl-N-hydroxy-4H-benzo[h]chromene-3-carboxamidine], the GI50 with SK-MEL-5 stood at 320 nM; in the experiment on TK-10, 16800 nM; in the experiment with OVCAR-4 it was 760 nM; with BT-549 (read-out: GI50 5a) it was 1250 nM; in the experiment with LOX IMVI (read-out: GI50 5a), 540 nM; in the experiment with A498 (read-out: GI50 5a), 110 nM. The GI50 came to 18100 nM in the experiment on UACC-257 and 440 nM with UO-31. For the same compound, at CDK-2, the IC50 amounted to 0.171 µM.
